Assay results as given in ChEMBL document CHEMBL1128755, “LTD4 Receptor binding activity of novel pyridine chromanols: qualitative correlation with pKa” (Bioorg Med Chem Lett, 1995).

test system: not listed separately; assay: Association constant (pKa) was determined; assay type: physicochemical; settings: not given

| pKa | SMILES |
| --- | --- |
| 4.81 | O[C@@H]1c2cc(OCc3ccc4ccccc4n3)ccc2OC[C@@H]1Cc1cccnc1 |
| 5.25 | O[C@@H]1c2cc(OCc3ccccn3)ccc2OC[C@@H]1Cc1cccnc1 |
| -0.44 | O[C@@H]1c2cc(OCc3cccc(F)n3)ccc2OC[C@@H]1Cc1cccnc1 |
| 1.52 | Cc1nc(COc2ccc3c(c2)[C@@H](O)[C@@H](Cc2cccnc2)CO3)ccc1[N+](=O)[O-] |
| 5.96 | Cc1cccc(COc2ccc3c(c2)[C@@H](O)[C@@H](Cc2cccnc2)CO3)n1 |
| 0.72 | O[C@@H]1c2cc(OCc3cccc(Cl)n3)ccc2OC[C@@H]1Cc1cccnc1 |
| 3.55 | Cc1nc(COc2ccc3c(c2)[C@@H](O)[C@@H](Cc2cccnc2)CO3)ccc1Br |

| SMILES | pKa |
| --- | --- |
| c1ccc2ncccc2c1 [QUINOLINE] | 4.81 |

target: T1, Cysteinyl leukotriene receptor 1 (Cavia porcellus, UniProt Q2NNR5); assay: Compound was tested for the inhibition of [3H]leukotriene D4 binding to LTD4 receptor in guinea pig lung membranes; assay type: cell membranes, Membrane; settings: not given
T1 sequence (Q2NNR5 whole entry): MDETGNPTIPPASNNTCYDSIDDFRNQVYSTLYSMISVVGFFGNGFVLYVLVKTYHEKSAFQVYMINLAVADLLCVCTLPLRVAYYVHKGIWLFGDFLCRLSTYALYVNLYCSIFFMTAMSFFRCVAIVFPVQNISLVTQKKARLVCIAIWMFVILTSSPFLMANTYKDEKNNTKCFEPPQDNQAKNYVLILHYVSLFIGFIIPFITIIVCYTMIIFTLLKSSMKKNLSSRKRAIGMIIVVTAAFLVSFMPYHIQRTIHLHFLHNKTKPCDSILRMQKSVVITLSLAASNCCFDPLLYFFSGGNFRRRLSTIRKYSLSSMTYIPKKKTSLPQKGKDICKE

| Ki [nM] | SMILES |
| --- | --- |
| 1640 | O[C@@H]1c2cc(OCc3ccc4ccccc4n3)ccc2OC[C@@H]1Cc1cccnc1 |
| > 100000 | O[C@@H]1c2cc(OCc3ccccn3)ccc2OC[C@@H]1Cc1cccnc1 |
| > 100000 | O[C@@H]1c2cc(OCc3cccc(F)n3)ccc2OC[C@@H]1Cc1cccnc1 |
| 240 | Cc1nc(COc2ccc3c(c2)[C@@H](O)[C@@H](Cc2cccnc2)CO3)ccc1[N+](=O)[O-] |
| > 100000 | Cc1cccc(COc2ccc3c(c2)[C@@H](O)[C@@H](Cc2cccnc2)CO3)n1 |
| 23400 | O[C@@H]1c2cc(OCc3cccc(Cl)n3)ccc2OC[C@@H]1Cc1cccnc1 |
| 1560 | Cc1nc(COc2ccc3c(c2)[C@@H](O)[C@@H](Cc2cccnc2)CO3)ccc1Br |

test system: not listed separately; assay: Partition coefficient (logP); assay type: physicochemical; settings: octanol/water

| logP | SMILES |
| --- | --- |
| 2.04 | O[C@@H]1c2cc(OCc3ccc4ccccc4n3)ccc2OC[C@@H]1Cc1cccnc1 |
| 0.66 | O[C@@H]1c2cc(OCc3ccccn3)ccc2OC[C@@H]1Cc1cccnc1 |
| 0.84 | O[C@@H]1c2cc(OCc3cccc(F)n3)ccc2OC[C@@H]1Cc1cccnc1 |
| 0.99 | Cc1nc(COc2ccc3c(c2)[C@@H](O)[C@@H](Cc2cccnc2)CO3)ccc1[N+](=O)[O-] |
| 1.11 | Cc1cccc(COc2ccc3c(c2)[C@@H](O)[C@@H](Cc2cccnc2)CO3)n1 |
| 1.27 | O[C@@H]1c2cc(OCc3cccc(Cl)n3)ccc2OC[C@@H]1Cc1cccnc1 |
| 2.09 | Cc1nc(COc2ccc3c(c2)[C@@H](O)[C@@H](Cc2cccnc2)CO3)ccc1Br |
